{"source": "patent US20020165148A1", "about": "“Analogues and derivatives of gastrin releasing peptide (GRP)” (priority 2000, published 2002)", "key": {"diabetic rats": {"system": "diabetic rats", "experiment": "injection of GRP into diabetic rats, clearance of blood glucose", "assay_type": "in vivo"}, "pancreatic islet cells": {"system": "pancreatic islet cells", "conditions": "pancreatic islet cells in vitro; cited from earlier work"}, "DPP IV": {"biological_target": "T1, DPP IV (Rattus norvegicus, UniProt P14740)", "T1 construct": "cleavage by the enzyme DPP IV in plasma; from tissue; host or cells: plasma", "T1 sequence (P14740 37-767 limits assumed)": "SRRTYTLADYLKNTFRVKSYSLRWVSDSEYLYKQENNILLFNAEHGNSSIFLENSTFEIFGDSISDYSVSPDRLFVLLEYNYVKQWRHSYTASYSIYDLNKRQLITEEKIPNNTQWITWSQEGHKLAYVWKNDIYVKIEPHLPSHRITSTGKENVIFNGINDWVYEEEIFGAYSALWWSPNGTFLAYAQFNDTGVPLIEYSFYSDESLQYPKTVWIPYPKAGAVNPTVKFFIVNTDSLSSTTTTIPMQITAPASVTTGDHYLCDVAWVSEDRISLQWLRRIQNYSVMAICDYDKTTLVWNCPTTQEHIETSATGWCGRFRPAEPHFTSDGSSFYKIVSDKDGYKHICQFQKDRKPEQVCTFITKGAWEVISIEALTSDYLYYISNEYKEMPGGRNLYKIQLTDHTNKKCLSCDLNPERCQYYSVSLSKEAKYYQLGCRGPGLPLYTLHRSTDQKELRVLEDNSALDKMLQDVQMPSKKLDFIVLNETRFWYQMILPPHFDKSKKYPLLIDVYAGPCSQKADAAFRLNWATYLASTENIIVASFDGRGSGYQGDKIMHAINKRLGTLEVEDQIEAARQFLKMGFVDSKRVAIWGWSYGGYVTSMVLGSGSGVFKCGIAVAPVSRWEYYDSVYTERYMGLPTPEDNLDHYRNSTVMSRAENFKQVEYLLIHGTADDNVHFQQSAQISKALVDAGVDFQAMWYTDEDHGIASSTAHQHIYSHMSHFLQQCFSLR", "experiment": "inactivation by DPP IV cleavage / half-life in plasma", "assay_type": "in vitro ADME"}}}
{"compound": "CSCC[C@H](NC(=O)[C@H](CC(C)C)NC(=O)[C@H](Cc1c[nH]cn1)NC(=O)CNC(=O)[C@@H](NC(=O)[C@H](C)NC(=O)[C@H](Cc1c[nH]c2ccccc12)NC(=O)[C@H](Cc1c[nH]cn1)NC(=O)[C@H](CC(N)=O)NC(=O)CNC(=O)[C@H](CCCNC(=N)N)NC(=O)[C@@H]1CCCN1C(=O)[C@H](Cc1ccc(O)cc1)NC(=O)[C@H](CCSC)NC(=O)[C@H](CCCCN)NC(=O)[C@@H](NC(=O)[C@H](CC(C)C)NC(=O)[C@@H](NC(=O)[C@@H](NC(=O)CNC(=O)CNC(=O)CNC(=O)[C@H](C)NC(=O)[C@@H]1CCCN1C(=O)[C@H](CC(C)C)NC(=O)[C@@H]1CCCN1C(=O)[C@@H](N)C(C)C)[C@@H](C)O)C(C)C)[C@@H](C)O)C(C)C)C(N)=O", "note": "[GRP]", "values": [{"measurement": "duration of glucose-lowering action", "setting": "diabetic rats; in vivo, diabetic rats", "value": "only for a short period of time"}, {"measurement": "clearance of blood glucose", "setting": "diabetic rats; injection into diabetic rats", "value": "markedly accelerated clearance of blood glucose"}, {"measurement": "potentiation of glucose-induced insulin secretion", "setting": "pancreatic islet cells", "value": "potentiate glucose-induced insulin secretion"}, {"measurement": "inactivation as a result of cleavage by DPP IV in plasma", "setting": "DPP IV", "value": "rapid inactivation"}]}
